Publication PMC4690121, “Interaction of Citrinin with Human Serum Albumin” (Toxins, 2015)
Where two headings read alike, the source gives them in different places.

Columns and labels:
[1] = biological target: T1, human serum albumin (HSA) (Homo sapiens, UniProt P02768); assay: Steady-state fluorescence displacement of warfarin from HSA by CIT; type: binding; set-up: purchased Sigma-Aldrich; settings: warfarin 1 μM, HSA 3.5 μM, CIT 0.25–5.0 μM
MDCK cells = assay: MDCK cell viability (calcein acetoxymethyl ester); type: cell-based; settings: 24 h
Protocol: MDCK (immortalized, epithelial-kidney, ATCC: CCL 34) cells were cultured in DMEM containing FBS (10%), penicillin (100 U/mL) and streptomycin (100 μg/mL), in 25 cm^2 sterile plastic flasks (VWR) and in 24-well sterile plastic plates (VWR). In order to test the effect of CIT on cell viability in absence and presence of albumin, cell media with and without 10% FBS or 40 g/L HSA were also prepared. After 24-h treatment of MDCK cells (in 24-well plates) with CIT (0–100 μM) in absence and presence of FBS (10%) or HSA (40 g/L), cells were washed three times with 500 μL PBS. Then PBS was replaced with 500 µL Hanks + glucose buffer containing 1.6 µM calcein acetoxymethyl ester and cells were incubated for 40 min at 37 °C in the dark. Thereafter, wells were washed again with 500 μL ice-cold PBS and the emptied wells were filled with 500 μL of 5% perchloric acid (PCA) after which cells were incubated for 15 min at room temperature. 20 μL PCA extract was added to 180 μL of 1 M NaOH using black 96-well optical plates (VWR) for fluorescence measurement of the formed calcein (λexc = 490 nm, λem = 520 nm). Fluorescence intensities were measured with a microplate reader (Perkin Elmer EnSpire Multimode reader).

[2] = biological target: T1, human serum albumin (HSA)
Protocol: Before ultrafiltration samples contained 1 μM CIT with or without HSA (1, 2.5 or 5 μM), while displacement of CIT by WAR (5 and 10 μM) or OTA (2.5 and 5 μM) was investigated in the presence of 1 μM CIT and 5 μM HSA. During ultrafiltration experiments Amicon Ultra-4 centrifugal filter units (with 10 kDa molecular weight cut-off value; from Merck Millipore, Darmstadt, Germany) were applied. In order to remove glycerol from the filters, filter units were washed with 3 mL water and 3 mL PBS. Thereafter, 2.5 mL of the samples were transferred into the filter and Amicon tubes were centrifuged at 7500 g for 10 min at 25 °C (in Hettich Universal 32R centrifuge with fixed-angle rotor). Then 2 mL quantity of filtrate was transferred into 5-mL Eppendorf tube, after which 10 μL 6 M HCl solution was added to the sample in order to adjust the pH (to approximately 2). […] Final CIT concentrations were determined (applying calibration curve at concentration range 0.1–2.0 μM) by Hitachi F-4500 fluorescence spectrophotometer with the measurement of the fluorescence signal of CIT itself, using 330 nm and 500 nm as excitation and emission wavelengths, respectively.

[3] = biological target: T1, human serum albumin (HSA); assay: Fluorescence quenching of albumin by CIT, binding constant and van't Hoff thermodynamics; set-up: purchased Sigma-Aldrich
Protocol: (§1) A Fluorolog τ3 spectrofluorometric system (Jobin-Yvon/SPEX) and Hitachi F-4500 fluorescence spectrophotometer were used for steady-state fluorescence and fluorescence polarization measurements. All analyses were performed at +25 °C except thermodynamic studies.
Binding constants (K) were determined using fluorescence quenching method, where increasing CIT concentrations (0–5 μM) were added to standard amount of albumin (2 μM). […] Similarly to our previous studies, K values of CIT-albumin complexes were quantified by non-linear fitting with Hyperquad2006 program package (Protonic Software) assuming 1:1 stoichiometry: (1) I=I0+IAC−I0/2[A]0([A]0+[C]0+1/K−([A]0+[C]0+1/K)^2−4[A]0[C]0) where I denotes the fluorescence emission intensity of albumin in presence of CIT; I0 denotes the fluorescence emission intensity of albumin in absence of CIT; IAC denotes the fluorescence emission intensity of pure albumin-CIT complex (which is calculated by the Hyperquad2006 software); K denotes the binding constant; while [A]0 and [C]0 denote the total concentrations of albumin and CIT, respectively.
To get deeper insight into the formation of CIT-HSA complex, quenching experiments were also performed at different temperatures (25, 30, 35, and 40 °C). Thermodynamic parameters were quantified applying the van’t Hoff equation: (2) lnK=−ΔG/RT=−ΔH/RT+ΔS/R where ΔG is the Gibbs free energy change, ΔS is the entropy change, while ΔH is the enthalpy change associated with the complex formation.

[4] = biological target: T2, porcine serum albumin (PSA) (Sus scrofa, UniProt P08835); assay: Fluorescence quenching of albumin by CIT, binding constant; settings: PBS pH 7.4, 25 °C; read-out: logK (±SD) of CIT-PSA complex (converted)
T2 construct: purchased Sigma-Aldrich
T2 sequence (P08835 25-607): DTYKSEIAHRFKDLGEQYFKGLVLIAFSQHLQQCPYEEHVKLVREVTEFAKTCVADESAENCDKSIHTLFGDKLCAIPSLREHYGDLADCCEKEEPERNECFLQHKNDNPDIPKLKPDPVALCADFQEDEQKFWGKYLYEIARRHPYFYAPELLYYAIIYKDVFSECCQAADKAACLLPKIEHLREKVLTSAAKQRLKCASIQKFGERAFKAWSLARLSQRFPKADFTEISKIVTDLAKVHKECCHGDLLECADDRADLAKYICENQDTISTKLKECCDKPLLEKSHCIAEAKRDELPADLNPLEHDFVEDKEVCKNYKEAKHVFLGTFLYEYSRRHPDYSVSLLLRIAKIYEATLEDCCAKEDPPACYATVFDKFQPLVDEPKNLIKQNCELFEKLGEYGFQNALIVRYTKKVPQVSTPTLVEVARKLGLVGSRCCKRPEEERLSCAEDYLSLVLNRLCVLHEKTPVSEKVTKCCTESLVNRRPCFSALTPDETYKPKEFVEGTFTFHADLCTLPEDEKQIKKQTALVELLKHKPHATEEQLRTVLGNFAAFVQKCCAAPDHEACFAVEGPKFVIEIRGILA
Protocol: as §1
(§2) Binding constants (K) were determined using fluorescence quenching method, where increasing CIT concentrations (0–5 μM) were added to standard amount of albumin (2 μM). Fluorescence emission spectra were recorded in PBS buffer (pH 7.4; λexc = 280 nm). Similarly to our previous studies, K values of CIT-albumin complexes were quantified by non-linear fitting with Hyperquad2006 program package (Protonic Software) assuming 1:1 stoichiometry: (1) I=I0+IAC−I0/2[A]0([A]0+[C]0+1/K−([A]0+[C]0+1/K)^2−4[A]0[C]0) where I denotes the fluorescence emission intensity of albumin in presence of CIT; I0 denotes the fluorescence emission intensity of albumin in absence of CIT; IAC denotes the fluorescence emission intensity of pure albumin-CIT complex (which is calculated by the Hyperquad2006 software); K denotes the binding constant; while [A]0 and [C]0 denote the total concentrations of albumin and CIT, respectively.

rat serum albumin (RSA) = biological target: T3, rat serum albumin (RSA) (Rattus norvegicus, UniProt P02770); assay: as above; settings: PBS pH 7.4, 25 °C; read-out: logK (±SD) of CIT-RSA complex (converted)
T3 construct: purchased Sigma-Aldrich
T3 sequence (P02770 25-608): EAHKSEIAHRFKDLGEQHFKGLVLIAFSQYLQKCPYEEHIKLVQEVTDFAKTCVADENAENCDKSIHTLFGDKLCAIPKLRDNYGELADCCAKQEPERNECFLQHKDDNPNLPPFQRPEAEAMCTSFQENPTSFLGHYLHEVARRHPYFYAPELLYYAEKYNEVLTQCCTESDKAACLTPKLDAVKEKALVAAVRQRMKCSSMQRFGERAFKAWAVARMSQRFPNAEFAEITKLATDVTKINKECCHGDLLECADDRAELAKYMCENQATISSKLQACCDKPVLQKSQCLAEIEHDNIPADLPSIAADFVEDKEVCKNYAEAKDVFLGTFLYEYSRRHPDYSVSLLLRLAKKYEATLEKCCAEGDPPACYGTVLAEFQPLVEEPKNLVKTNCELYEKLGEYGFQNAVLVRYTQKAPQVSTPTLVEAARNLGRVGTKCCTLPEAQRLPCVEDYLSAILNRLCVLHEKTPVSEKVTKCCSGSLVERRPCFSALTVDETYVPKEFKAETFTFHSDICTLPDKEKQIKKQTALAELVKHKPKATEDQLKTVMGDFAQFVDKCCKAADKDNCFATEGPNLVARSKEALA
Protocol: as §1, §2

[5] = biological target: T4, bovine serum albumin (BSA) (Bos taurus, UniProt P02769); assay: as above; settings: PBS pH 7.4, 25 °C; read-out: logK (±SD) of CIT-BSA complex (converted)
T4 construct: purchased Sigma-Aldrich
T4 sequence (P02769 25-607): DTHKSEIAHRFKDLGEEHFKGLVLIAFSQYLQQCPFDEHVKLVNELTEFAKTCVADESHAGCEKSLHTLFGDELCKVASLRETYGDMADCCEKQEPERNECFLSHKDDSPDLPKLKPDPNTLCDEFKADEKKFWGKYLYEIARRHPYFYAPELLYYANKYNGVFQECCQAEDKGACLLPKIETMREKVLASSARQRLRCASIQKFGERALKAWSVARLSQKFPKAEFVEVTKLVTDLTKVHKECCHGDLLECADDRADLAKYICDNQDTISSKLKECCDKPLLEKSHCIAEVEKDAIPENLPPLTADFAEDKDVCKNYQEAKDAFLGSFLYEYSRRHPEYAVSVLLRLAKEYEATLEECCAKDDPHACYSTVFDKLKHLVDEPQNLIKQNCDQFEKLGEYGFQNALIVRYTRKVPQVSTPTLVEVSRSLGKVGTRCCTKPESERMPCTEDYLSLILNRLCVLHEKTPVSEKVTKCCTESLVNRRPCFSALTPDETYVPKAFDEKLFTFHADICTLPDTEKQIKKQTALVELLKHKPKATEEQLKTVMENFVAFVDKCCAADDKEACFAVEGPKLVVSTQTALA
Protocol: as §1, §2

[6] = biological target: T1, human serum albumin (HSA); assay: Fluorescence polarization displacement of OTA from HSA; type: binding; set-up: purchased Sigma-Aldrich; settings: OTA 1 μM, HSA 1.4 μM, competitor 1–30 μM
[7] = biological target: T1, human serum albumin (HSA); settings: cited from earlier work
[8] = van't Hoff, 25-40 °C quenching data

T1 sequence (P02768 25-609): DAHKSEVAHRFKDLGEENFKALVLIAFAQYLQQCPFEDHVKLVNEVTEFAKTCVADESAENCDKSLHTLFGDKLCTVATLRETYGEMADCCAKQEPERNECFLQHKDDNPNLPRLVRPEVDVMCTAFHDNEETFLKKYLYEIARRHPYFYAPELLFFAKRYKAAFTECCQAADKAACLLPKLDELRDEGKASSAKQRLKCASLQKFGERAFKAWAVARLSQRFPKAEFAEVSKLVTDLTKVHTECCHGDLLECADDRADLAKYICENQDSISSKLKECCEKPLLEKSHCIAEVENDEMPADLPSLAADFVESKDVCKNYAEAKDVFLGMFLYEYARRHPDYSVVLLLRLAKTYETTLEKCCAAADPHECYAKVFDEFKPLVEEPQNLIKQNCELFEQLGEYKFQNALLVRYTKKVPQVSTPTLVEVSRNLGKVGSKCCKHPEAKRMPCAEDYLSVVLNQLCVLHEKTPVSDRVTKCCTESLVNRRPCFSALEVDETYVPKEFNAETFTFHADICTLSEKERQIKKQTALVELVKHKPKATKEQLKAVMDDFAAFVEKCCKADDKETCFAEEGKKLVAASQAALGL

Compound: CC1=C2C(=CO[C@H](C)[C@H]2C)C(O)=C(C(=O)O)C1=O [CIT, Citrinin]
- fluorescence intensity of HSA-bound warfarin (displacement of warfarin) [1]: significant decrease
- CIT-induced viability loss in presence of FBS (MDCK cells; 100 μM CIT + 10% FBS): considerably alleviated
- CIT-induced viability loss in presence of HSA (MDCK cells; 100 μM CIT + 40 g/L HSA): considerably alleviated
- decrease of cell viability (MDCK cells; 100 μM CIT, absence of FBS): approximately 50%
- CIT in the filtrate in presence of HSA ([2]; 1 μM CIT, HSA 1, 2.5 and 5 μM, 10 kDa cut-off): significant decrease
- Kd ([3]; PBS pH 6.0, 25 °C, read-out: logK of CIT-HSA complex (converted)): 5.62 µM
- Kd ([3]; PBS pH 7.0, 25 °C, read-out: logK of CIT-HSA complex (converted)): 5.25 µM
- Kd ([3]; PBS pH 7.4, 25 °C, read-out: logK (±SD) of CIT-HSA complex (converted)): 4.79 µM
- Kd ([3]; PBS pH 7.4, 30 °C, read-out: logK (±SD) of CIT-HSA complex (converted)): 5.5 µM
- Kd ([3]; PBS pH 7.4, 35 °C, read-out: logK (±SD) of CIT-HSA complex (converted)): 6.46 µM
- Kd ([3]; PBS pH 7.4, 40 °C, read-out: logK (±SD) of CIT-HSA complex (converted)): 7.76 µM
- Kd ([3]; PBS pH 7.8, 25 °C, read-out: logK of CIT-HSA complex (converted)): 7.59 µM
- ∆H of CIT-HSA complex formation [3, 8]: -5.772 kcal/mol
- ∆S of CIT-HSA complex formation [3, 8]: +20.90 J·mol^−1·K^−1
- Kd [4]: 11 µM
- Kd (rat serum albumin (RSA)): 3.16 µM
- Kd [5]: 8.91 µM
- fluorescence polarization of OTA (displacement of OTA) [6]: decrease of fluorescence polarization of OTA in a concentration dependent fashion

Compound: C[C@@H]1Cc2c(Cl)cc(C(=O)N[C@@H](Cc3ccccc3)C(=O)O)c(O)c2C(=O)O1 [OTA, ochratoxin A]
- logK of OTA-HSA complex ([7]; 25 °C): 7.4–7.6
- complex stability with HSA compared to BSA ([7]; HSA vs BSA): 15 fold
- complex stability with HSA compared to RSA ([7]; HSA vs RSA): 30 fold
- displacement of CIT from HSA ([2]; 1 μM CIT + 5 μM HSA, 5 μM OTA): almost complete displacement
- change of CIT concentration in the filtrate caused by the competitor ([2]; 1 μM CIT + 5 μM HSA, warfarin or ibuprofen 5 or 10 μM, OTA 2.5 and 5 μM): significant elevation
